pEC50, pIC50: −log10 of the molar value.
Columns and labels:
[1] = molecular target: T1, HCV NS3/4A protease complex (Hepatitis C virus genotype 1a, UniProt P27958, C1454S/C1711G); assay: FRET peptide assay to monitor HCV NS3/4A proteolytic activity; format: biochemical; settings: recombinant NS3/4A protease complex, strain not stated
T1 construct: DNA encoding the recombinant HCV NS3/4A protease complex (amino acids 1027 to 1711) for these strains; inferred from the pET21b vector and Ni-NTA purification; made in house; host or cells: Escherichia coli BL21 (DE3)
Excerpt: HCV NS3 protease complexes, derived from the BMS strain, H77 strain or J4L6S strain, were generated, as described below. These purified recombinant proteins were generated for use in a homogeneous assay (see below) to provide an indication of how effective compounds of the present disclosure would be in inhibiting HCV NS3 proteolytic activity.
Serum from an HCV-infected patient was obtained from Dr. T. Wright, San Francisco Hospital. An engineered full-length cDNA (compliment deoxyribonucleic acid) template of the HCV genome (BMS strain) was constructed from DNA fragments obtained by reverse transcription-PCR (RT-PCR) of serum RNA (ribonucleic acid) and using primers selected on the basis of homology between other genotype 1a strains. From the determination of the entire genome sequence, a genotype 1a was assigned to the HCV isolate according to the classification of Simmonds et al. (See P Simmonds, K A Rose, S Graham, S W Chan, F McOmish, B C Dow, E A Follett, P L Yap and H Marsden, J. Clin. Microbiol., 31(6), 1493-1503 (1993)). […] The infectious clones, H77 (1a genotype) and J4L6S (1b genotype) were obtained from R. Purcell (NIH) and the sequences are published in Genbank (AAB67036, see Yanagi, M., Purcell, R. H., Emerson, S. U. and Bukh, J. Proc. Natl. Acad. Sci. U.S.A. 94(16), 8738-8743 (1997); AF054247, see Yanagi, M., St Claire, M., Shapiro, M., Emerson, S. U., Purcell, R. H. and Bukh, J., Virology 244 (1), 161-172. (1998)).
The H77 and J4L6S strains were used for production of recombinant NS3/4A protease complexes. DNA encoding the recombinant HCV NS3/4A protease complex (amino acids 1027 to 1711) for these strains was manipulated as described by P. Gallinari et al. (see Gallinari P, Paolini C, Brennan D, Nardi C, Steinkuhler C, De Francesco R. Biochemistry. 38(17):5620-32, (1999)). Briefly, a three-lysine solubilizing tail was added at the 3′-end of the NS4A coding region. The cysteine in the P1 position of the NS4A-NS4B cleavage site (amino acid 1711) was changed to a glycine to avoid the proteolytic cleavage of the lysine tag. Furthermore, a cysteine to serine mutation was introduced by PCR at amino acid position 1454 to prevent the autolytic cleavage in the NS3 helicase domain. The variant DNA fragment was cloned in the pET21b bacterial expression vector (Novagen) and the NS3/4A complex was expressed in Escherichia coli strain BL21 (DE3) (Invitrogen) following the protocol described by P. Gallinari et al. (see Gallinari P, Brennan D, Nardi C, Brunetti M, Tomei L, Steinkuhler C, De Francesco R., J Viral. 72(8):6758-69 (1998)) with modifications. Briefly, the NS3/4A protease complex expression was induced with 0.5 millimolar (mM) Isopropyl β-D-1-thiogalactopyranoside (IPTG) for 22 hours (h) at 20° C. […]

[2] = test system: HCV replicon in HUH-7 cells; assay: HCV replicon FRET assay (confirmed in replicon luciferase reporter assay); format: cell-based; settings: Hepatitis C virus, 96 h, HUH-7 cells expressing HCV 1b replicon, 4 days
Excerpt: An HCV replicon whole cell system was established as described by Lohmann V, Korner F, Koch J, Herian U, Theilmann L, Bartenschlager R., Science 285(5424):110-3 (1999). This system enabled us to evaluate the effects of our HCV Protease compounds on HCV RNA replication. Briefly, using the HCV strain 1b sequence described in the Lohmann paper (Assession number: AJ238799), an HCV cDNA was synthesized by Operon Technologies, Inc. (Alameda, Calif.), and the full-length replicon was then assembled in plasmid pGem9zf(+) (Promega, Madison, Wis.) using standard molecular biology techniques. The replicon consists of (i) the HCV 5′ UTR fused to the first 12 amino acids of the capsid protein, (ii) the neomycin phosphotransferase gene (neo), (iii) the IRES from encephalomyocarditis virus (EMCV), and (iv) HCV NS3 to NS5B genes and the HCV 3′ UTR. Plasmid DNAs were linearized with ScaI and RNA transcripts were synthesized in vitro using the T7 MegaScript transcription kit (Ambion, Austin, Tex.) according to manufacturer's directions. In vitro transcripts of the cDNA were transfected into the human hepatoma cell line, HUH-7. […] Resulting cell lines were characterized for positive and negative strand RNA production and protein production over time.
The HCV replicon FRET assay was developed to monitor the inhibitory effects of compounds described in the disclosure on HCV viral replication. HUH-7 cells, constitutively expressing the HCV replicon, were grown in Dulbecco's Modified Eagle Media (DMEM) (Gibco-BRL) containing 10% Fetal calf serum (FCS) (Sigma) and 1 mg/ml G418 (Gibco-BRL). Cells were seeded the night before (1.5×10^4 cells/well) in 96-well tissue-culture sterile plates. Compound and no compound controls were prepared in DMEM containing 4% FCS, 1:100 Penicillin/Streptomysin (Gibco-BRL), 1:100 L-glutamine and 5% DMSO in the dilution plate (0.5% DMSO final concentration in the assay). Compound/DMSO mixes were added to the cells and incubated for 4 days at 37° C. After 4 days, cells were first assessed for cytotoxicity using alamar Blue (Trek Diagnotstic Systems) for a CC50 reading. The toxicity of compound (CC50) was determined by adding 1/10 volume of alamar Blue to the media incubating the cells. After 4 h, the fluorescence signal from each well was read, with an excitation wavelength at 530 nm and an emission wavelength of 580 nm, using the Cytofluor Series 4000 (Perspective Biosystems). Plates were then rinsed thoroughly with Phosphate-Buffered Saline (PBS) (3 times 150 μl).
As a secondary assay, EC50 determinations from the replicon FRET assay were confirmed in a replicon luciferase reporter assay. […] Following 4 days in a 37° C./5% CO2 incubator, cells were analyzed for Renilla Luciferase activity using the Promega Dual-Glo Luciferase Assay System. […]

HCV = settings: combination therapy; cited from earlier work

T1 sequence (P27958 1027-1711 C1454S/C1711G, one chain of several): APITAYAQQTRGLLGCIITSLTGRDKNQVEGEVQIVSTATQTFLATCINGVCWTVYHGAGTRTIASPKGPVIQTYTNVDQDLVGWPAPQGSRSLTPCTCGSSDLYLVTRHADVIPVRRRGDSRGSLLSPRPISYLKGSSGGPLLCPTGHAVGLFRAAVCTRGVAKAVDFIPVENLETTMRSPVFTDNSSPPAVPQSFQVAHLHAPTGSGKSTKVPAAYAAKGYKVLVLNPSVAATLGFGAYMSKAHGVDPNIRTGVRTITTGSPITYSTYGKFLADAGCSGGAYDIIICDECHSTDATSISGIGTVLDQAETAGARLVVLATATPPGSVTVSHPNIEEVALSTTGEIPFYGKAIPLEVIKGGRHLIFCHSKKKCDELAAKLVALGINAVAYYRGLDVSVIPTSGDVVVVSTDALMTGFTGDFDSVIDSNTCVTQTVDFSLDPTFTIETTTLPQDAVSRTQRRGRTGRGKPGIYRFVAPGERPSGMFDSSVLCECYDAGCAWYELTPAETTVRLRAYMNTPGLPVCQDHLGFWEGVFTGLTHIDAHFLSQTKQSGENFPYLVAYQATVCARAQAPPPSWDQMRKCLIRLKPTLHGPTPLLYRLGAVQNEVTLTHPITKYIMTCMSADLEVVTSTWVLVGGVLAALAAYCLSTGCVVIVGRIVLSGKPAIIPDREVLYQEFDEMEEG

| Compound | pIC50 ([1]; class symbols) | pEC50 ([2]; class symbols) | sustained efficacy, share of patients (HCV) [%] | pIC50 [1] | pEC50 [2] |
| --- | --- | --- | --- | --- | --- |
| C=C[C@@H]1C[C@]1(NC(=O)[C@@H]1C[C@@]2(c3ccc(-c4ccccc4)cc3)CN1C(=O)[C@@H](NC(=O)OC(C)(C)C)CCCCCC/C=C/CS2)C(=O)NS(=O)(=O)C1CC1 [Example 2, tert-butyl (3S,14R,16S,E)-14-(biphenyl-4-yl)-16-((1R,2S)-1-(cyclopropylsulfonylcarbamoyl)-2-vinylcyclopropylcarbamoyl)-2-oxo-13-thia-1-azabicyclo[12.2.1]heptadec-10-en-3-ylcarbamate] | 7.52 to 8.30 | 6.00 to 6.30 | – | – | – |
| C=C[C@@H]1C[C@]1(NC(=O)[C@@H]1C[C@@]2(c3ccc(-c4ccccc4)cc3)CN1C(=O)[C@@H](NC(=O)OC(C)(C)C)CCCCCCCCCS2)C(=O)NS(=O)(=O)C1CC1 [Example 3, tert-butyl (3S,14R,16S)-14-(biphenyl-4-yl)-16-((1R,2S)-1-(cyclopropylsulfonylcarbamoyl)-2-vinylcyclopropylcarbamoyl)-2-oxo-13-thia-1-azabicyclo[12.2.1]heptadecan-3-ylcarbamate] | 7.52 to 8.30 | 6.00 to 6.30 | – | – | – |
| alpha-interferon and ribavirin | – | – | 40 | – | – |
| C=C[C@@H]1C[C@]1(NC(=O)[C@@H]1C[C@@]2(c3ccc(-c4ccccc4)cc3)CN1C(=O)[C@@H](NC(=O)OC(C)(C)C)CCCC/C=C/CS2)C(=O)NS(=O)(=O)C1CC1 [Example 4, tert-butyl (3S,12R,14S,E)-12-(biphenyl-4-yl)-14-((1R,2S)-1-(cyclopropylsulfonylcarbamoyl)-2-vinylcyclopropylcarbamoyl)-2-oxo-11-thia-1-azabicyclo[10.2.1]pentadec-8-en-3-ylcarbamate] | 7.00 to 7.51 | 6.00 to 6.30 | – | – | – |
| C=C[C@@H]1C[C@]1(NC(=O)[C@@H]1C[C@@]2(c3ccc(-c4ccccc4)cc3)CN1C(=O)[C@@H](NC(=O)OC(C)(C)C)CCCCC/C=C/CS2)C(=O)NS(=O)(=O)C1CC1 [Example 1, tert-butyl (3S,13R,15S,E)-13-(biphenyl-4-yl)-15-((1R,2S)-1-(cyclopropylsulfonylcarbamoyl)-2-vinylcyclopropylcarbamoyl)-2-oxo-12-thia-1-azabicyclo[11.2.1]hexadec-9-en-3-ylcarbamate] | – | – | – | 8.30 | 7.12 |
